Reference: patent US12685733B2, “Indole molecules and use thereof in the inhibition of DNA polymerases” (BioVentures, LLC, priority 2019, dated 2026)

Columns and labels:
[1] = molecular target: T1, hpol κ (Homo sapiens, UniProt Q9UBT6); assay: Fluorescence-based (TAMRA/BHQ strand displacement) DNA polymerase activity assay; settings: for activity at 40 µM: read-out: % Activity Mean (hpol κ activity)
T1 sequence (Q9UBT6 19-526): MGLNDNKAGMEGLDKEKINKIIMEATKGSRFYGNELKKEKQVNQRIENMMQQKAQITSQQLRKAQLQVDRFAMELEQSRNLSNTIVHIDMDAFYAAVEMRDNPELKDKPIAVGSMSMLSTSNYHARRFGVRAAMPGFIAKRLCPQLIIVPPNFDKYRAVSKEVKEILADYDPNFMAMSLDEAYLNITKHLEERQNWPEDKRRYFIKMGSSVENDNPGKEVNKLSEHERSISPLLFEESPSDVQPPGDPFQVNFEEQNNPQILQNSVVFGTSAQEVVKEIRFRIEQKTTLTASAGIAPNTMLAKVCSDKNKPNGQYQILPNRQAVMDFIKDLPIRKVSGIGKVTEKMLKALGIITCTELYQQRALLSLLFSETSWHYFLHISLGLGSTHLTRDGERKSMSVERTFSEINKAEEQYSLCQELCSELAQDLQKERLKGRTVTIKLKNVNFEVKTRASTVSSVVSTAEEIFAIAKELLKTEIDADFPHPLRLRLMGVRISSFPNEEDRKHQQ

[2] = tested on: hpol κ-deficient HAP-1 cells; assay: Clonogenic survival assay; format: cell-based, human; settings: 250 μM TMZ
Protocol: (§1) HAP-1 and hpol κ^KO cells were purchased from Horizons Discovery Group LLC (Cambridge, UK). The company generated the Hap1 cells using CRISPR-Cas9 technology and the elimination of kappa expression was confirmed by Sanger sequence genome editing. We further confirmed the elimination of hpol κ protein expression by Western blotting (data not shown). Hap1 cells were cultured in Iscove's modified Dulbecco's medium (IMDM; Invitrogen, CA, USA) supplemented with 10% (v/v) fetal bovine serum (FBS; Atlas Biologicals, CO, USA) and 1% (v/v) antibiotic/antimycotic solution (Sigma-Aldrich, MO, USA).T98G cells were purchased from ATCC (American Type Culture Collection, VA, USA). T98G cells were cultured in MEM (Minimum Essential Medium) (Invitrogen, CA, USA) supplemented with 10% (v/v) FBS (Fetal Bovine Serum, Atlas Biologicals, CO, USA) and antibiotic/antimycotic solution (1%, v/v) (Sigma-Aldrich, MO, USA). NT2 cells were kindly provided by Dr. Michael Borrelli (University of Arkansas for Medical Sciences, AR, USA). NT2 cells were cultured in DMEM/F12 (Dulbecco's Modified Eagle Medium) supplemented with 10% (v/v) FCS (Fetal Calf Serum) and antibiotic/antimycotic solution (1%) (Sigma-Aldrich, MO, USA).
(§2) To measure the clonogenic ability, cells were plated (500 cells per well) in 6-well dishes. In the case of HAP-1 cells, cells were treated the following day after plating, with temozolomide (TMZ) (0, 1, 5, 50, 125 and 250 μM) alone or in combination with UAMS-48 (0.1 and 0.5 μM) for 1 hour. In the case of T98G and NT2 cells, treatment was done on the following day of plating, with increasing concentrations of TMZ alone or in combination with UAMS-48 (50 nM) for 3 hrs. T98G and NT2 cells were treated with increasing concentrations of UAMS-48 for 3 hrs. After treatment, cells were cultured in fresh IMDM supplemented with 10% FBS for 10 days. The colonies were gently washed with 1×PBS, fixed with 3.7% (v/v) formaldehyde for 20 mins at RT and stained with crystal violet solution (Sigma-Aldrich, MO, USA) for 30 mins at RT.
(§3) The fixed crystal-violet stained colonies in each 6-well plate were examined under an EVOS XL Core imaging system (Thermo Fisher Scientific) under bright-field, and the colonies were inspected manually. […] Color images of each 6-well plate were captured and opened for processing using the Fiji version of the freely available software ImageJ. Setting the appropriate threshold for counting colonies for each cell type, corresponding to the respective radii calculated previously, the colonies were counted using the Colony Area plugin of ImageJ. Manual counting was performed on a few wells picked randomly, and the colony count so obtained was tallied with the number obtained using ImageJ, to ensure they matched reasonably. All experiments were performed in triplicate, and the colony number for each well was expressed as the mean (±standard deviation). The results were plotted to generate a dose response curve for TMZ treatment using the software Graphpad Prism, where the mean number of colonies was plotted along the Y-axis, and the TMZ concentration along the X-axis. Bar charts comparing the mean number of colonies as a function of the various conditions were also plotted for both cell types. Combination index values were calculated using the Chou-Talalay method (Chou 2010).

[3] = tested on: hpol κ-proficient HAP-1 cells; assay: Clonogenic survival assay; format: cell-based, human; settings: 250 μM TMZ alone
Protocol: as §1, §2, §3

[4] = molecular target: T2, recombinant hpol κ (Homo sapiens, UniProt Q9UBT6); settings: earlier screen; cited from earlier work
T2 sequence (Q9UBT6 1-870): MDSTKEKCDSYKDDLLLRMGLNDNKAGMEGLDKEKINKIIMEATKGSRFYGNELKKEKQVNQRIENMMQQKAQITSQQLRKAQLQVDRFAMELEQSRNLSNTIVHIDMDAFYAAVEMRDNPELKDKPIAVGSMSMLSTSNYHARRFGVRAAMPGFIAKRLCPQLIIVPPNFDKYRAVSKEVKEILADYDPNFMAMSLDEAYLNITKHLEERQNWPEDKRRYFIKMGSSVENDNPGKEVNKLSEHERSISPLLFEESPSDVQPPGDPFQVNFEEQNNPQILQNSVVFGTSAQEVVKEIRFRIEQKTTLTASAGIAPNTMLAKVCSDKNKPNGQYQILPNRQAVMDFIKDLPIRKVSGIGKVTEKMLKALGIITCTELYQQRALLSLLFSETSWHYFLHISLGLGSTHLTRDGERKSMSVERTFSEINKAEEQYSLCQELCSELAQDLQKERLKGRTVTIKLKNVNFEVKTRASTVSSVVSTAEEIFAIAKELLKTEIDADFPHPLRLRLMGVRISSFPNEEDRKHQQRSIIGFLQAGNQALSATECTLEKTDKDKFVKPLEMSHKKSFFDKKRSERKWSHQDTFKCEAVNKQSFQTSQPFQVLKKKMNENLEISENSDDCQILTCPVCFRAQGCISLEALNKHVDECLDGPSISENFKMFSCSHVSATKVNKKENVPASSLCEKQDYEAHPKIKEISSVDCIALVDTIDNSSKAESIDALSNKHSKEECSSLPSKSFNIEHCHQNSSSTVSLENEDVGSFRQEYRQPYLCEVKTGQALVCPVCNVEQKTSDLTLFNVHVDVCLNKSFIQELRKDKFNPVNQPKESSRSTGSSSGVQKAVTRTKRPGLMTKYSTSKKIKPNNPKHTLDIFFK

| Compound | activity at 40 µM [1] [%] | also measured |
| --- | --- | --- |
| N#Cc1ccc(Cn2cc(C=C3C(=O)NC(=O)NC3=O)c3cccnc32)cc1 [IBA-24] | 88.8 |  |
| COc1ccc(Cn2cc(C=C3C(=O)NC(=S)NC3=O)c3cccnc32)cc1 [IBA-15] | 95.1 |  |
| O=C1NC(=S)NC(=O)C1=Cc1cn(Cc2ccc(Br)cc2)c2ccc(COCCN3CCOCC3)cc12 [IBA-22] | 91.1 |  |
| COc1ccc2c(c1)c(C=C1C(=O)N(C)C(=O)N(C)C1=O)c(C)n2Cc1cccc2ccccc12 [IBA-2] | 114 |  |
| COc1ccc2c(c1)c(/C=N/NC(=N)N)cn2C(=O)c1cccc2ccccc12 [IAG-2] | 104 | IC50 [1]: 68.6 µM |
| O=C1NC(=S)NC(=O)C1=Cc1cn(Cc2ccc3ccccc3c2)c2ccc(Cl)cc12 [IBA-32] | 56.5 | turnover number (kcat), hpol κ-catalyzed dTTP insertion ([1]; steady-state kinetics with varying inhibitor concentration): it was the kcat and not the KdNTP that was altered |
| COc1ccc2c(c1)c(/C=N/NC(=N)N)cn2Cc1ccc2ccccc2c1 [IAG-5] | 94 | IC50 [1]: 43.7 µM |
| O=C1NC(=S)NC(=O)C1=Cc1cn(Cc2ccc3ccccc3c2)c2ccccc12 [IBA-1] | 116 |  |
| O=C1NC(=O)C(=Cc2cn(Cc3ccc4ccccc4c3)c3ccccc23)C(=O)N1 [IBA-33] | 17.9 |  |
| Cn1nnc2c(C(N)=O)ncn2c1=O [TMZ, temozolomide, reference compound] |  | colonies formed relative to untreated cells [2]: less than 50%; colonies formed relative to control [3]: ~ 75% |
| O=C1NC(=S)NC(=O)C1=Cc1cn(Cc2cccc(C(F)(F)F)c2)c2ncccc12 [IBA-13] | 96.6 |  |
| N#Cc1ccc(Cn2cc(C=C3C(=O)NC(=O)NC3=O)c3ccccc32)cc1 [IBA-10] | 102 |  |
| O=C1NC(=S)NC(=O)C1=Cc1cn(C(=O)c2ccc3ccccc3c2)c2ccc(Cl)cc12 [IBA-25] | 87.6 |  |
| O=C1NC(=S)NC(=O)C1=Cc1cn(Cc2cccc3ccccc23)c2ccc(Br)cc12 [IBA-34] | 3.7 |  |
| Cc1c(C=C2C(=O)NC(=O)NC2=O)c2ccccc2n1C(=O)c1ccc2ccccc2c1 [IBA-14] | 95.7 |  |
| Cc1c(C=C2C(=O)NC(=S)NC2=O)c2ccccc2n1C(=O)c1cccc2ccccc12 [IBA-26] | 86.4 |  |
| N#Cc1ccc(Cn2cc(C=C3C(=O)NC(=S)NC3=O)c3cccnc32)cc1 [IBA-16] | 94.5 |  |
| CC(C)c1ccc2c(c1)c(SC(C)(C)C)c(CC(C)(C)C(=O)O)n2Cc1ccc(Cl)cc1 [MK-886] |  | IC50 for inhibition of recombinant hpol κ [4]: tens of micromolar |
| O=C1NC(=O)C(=Cc2cn(Cc3cccc(C(F)(F)F)c3)c3ncccc23)C(=O)N1 [IBA-9] | 103 |  |
| O=C1NC(=S)NC(=O)C1=Cc1cn(C(=O)c2cccc3ccccc23)c2ccc(Cl)cc12 [IBA-27] | 85.8 |  |
| Cc1c(C=C2C(=O)NC(=O)NC2=O)c2ccccc2n1Cc1ccc(Br)cc1 [IBA-19] | 93.3 |  |
| N=C(N)N/N=C/c1cn(Cc2ccc3ccccc3c2)c2ccccc12 [IAG-4] | 95 | IC50 [1]: 48.3 µM |

| Compound | activity at 40 µM [1] [%] | also measured |
| --- | --- | --- |
| Cc1c(C=C2C(=O)NC(=S)NC2=O)c2ccccc2n1C(=O)c1ccc2ccccc2c1 [IBA-18] | 93.5 |  |
| Cc1c(C=C2C(=O)N(C)C(=O)N(C)C2=O)c2cc(Cl)ccc2n1Cc1cccc2ccccc12 [IBA-3] | 111 |  |
| Cc1c(C=C2C(=O)NC(=S)NC2=O)c2cc(Cl)ccc2n1Cc1cccc2ccccc12 [IBA-11] | 99.1 |  |
| COc1ccc2c(c1)c(C=C1C(=O)NC(=S)NC1=O)cn2C(=O)c1cccc2ccccc12 [IBA-17] | 93.8 |  |
| N=C(N)N/N=C/c1cn(Cc2cccc3ccccc23)c2ccc(Cl)cc12 [IAG-7] | 64 | IC50 [1]: 24.2 µM |
| O=C1NC(=O)C(=Cc2cn(Cc3ccc4ccccc4c3)c3ncc(Cl)cc23)C(=O)N1 [IBA-21] | 92.2 |  |
| N=C(N)N/N=C/c1cn(C(=O)c2ccc3ccccc3c2)c2ccc(Cl)cc12 [IAG-9] | 30 | IC50 [1]: 18.8 µM |
| O=C1NC(=S)NC(=O)C1=Cc1cn(Cc2cccc3ccccc23)c2ccc(Cl)cc12 [IBA-6] | 108 |  |
| COc1ccc2c(c1)c(C=C1C(=O)NC(=S)NC1=O)c(C)n2Cc1cccc2ccccc12 [IBA-23] | 91 |  |
| O=C1NC(=S)NC(=O)C1=Cc1cn(C(=O)c2cccc3ccccc23)c2ccccc12 [IBA-29] | 83.3 |  |
| O=C1NC(=O)C(=Cc2cn(Cc3cccc4ccccc34)c3ncc(Cl)cc23)C(=O)N1 [IBA-8] | 103 |  |
| COc1ccc2c(c1)c(C=C1C(=O)NC(=S)NC1=O)cn2C(=O)c1ccc2ccccc2c1 [IBA-20] | 92.9 |  |
| O=C1NC(=S)NC(=O)C1=Cc1cn(Cc2cccc3ccccc23)c2ncc(Cl)cc12 [IBA-5] | 109 |  |
| COc1ccc(Cn2cc(C=C3C(=O)NC(=O)NC3=O)c3cccnc32)cc1 [IBA-4] | 110 |  |
| Cc1c(C=C2C(=O)NC(=O)NC2=O)c2ccccc2n1C(=O)c1cccc2ccccc12 [IBA-7] | 107 |  |
| O=C1NC(=S)NC(=O)C1=Cc1cn(Cc2ccc3ccccc3c2)c2ncc(Cl)cc12 [IBA-28] | 84.4 |  |
| O=C1NC(=O)C(=Cc2cn(Cc3ccc4ccccc4c3)c3ccc(Cl)cc23)C(=O)N1 [IBA-31] | 67.6 |  |
| Cc1c(C=C2C(=O)NC(=O)NC2=O)c2cc(Cl)ccc2n1Cc1cccc2ccccc12 [IBA-12] | 96.6 |  |
| Cc1c(/C=N/NC(=N)N)c2ccccc2n1C(=O)c1cccc2ccccc12 [IAG-1] | 105 | IC50 [1]: 84.6 µM |
| N=C(N)N/N=C/c1cn(Cc2cccc3ccccc23)c2ccc(Br)cc12 [IAG-8] | 57 | IC50 [1]: 7.2 to 24.2 µM |
| O=C1NC(=S)NC(=O)C1=Cc1cn(C(=O)c2ccc3ccccc3c2)c2ccccc12 [IBA-30] | 81.4 |  |
